Measurements published in patent publication US6638973B2, “Taxane formulations” (FSU Research Foundation, Inc., priority 2000, dated 2003).
Where two headings read alike, the source gives them in different places.

Tested on: HCT116 cells
Assay: In vitro cytotoxicity measured by the cell colony formation assay
Format: cell-based
Conditions: colonies counted after 7 days, read-out: IN VITRO ID 50 (nm) HCT116
Procedure, shortened: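 Colony-forming survival was scored 7 days after a 72 h, 37 °C compound exposure followed by washout into fresh medium.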

[1] = HCT116 colony formation, 72 h drug incubation, Example 5, C-7 ester/C-10 hydroxy taxanes
[2] = HCT116 colony formation, 72 h drug incubation, Example 10, C-10 ester/C-7 hydroxy taxanes
[3] = HCT116 cells, 72 h incubation with drug, ID50 = drug concentration producing 50% inhibition of colony formation
[4] = HCT116 cells, 72 h drug incubation, ID50 = drug concentration producing 50% inhibition of colony formation
[5] = HCT116 cells, colony formation, 72 h incubation with drug, ID50 = drug concentration producing 50% inhibition of colony formation

Compound: C/C=C/C(=O)N[C@@H](c1ccco1)[C@@H](O)C(=O)O[C@H]1C[C@@]2(O)[C@@H](OC(=O)c3ccccc3)C3[C@](C)(C(=O)[C@H](OC(=O)COc4ccccc4)C(=C1C)C2(C)C)[C@@H](O)C[C@H]1OC[C@@]31OC(C)=O (some centres unmarked) [Compound 6111]
- IC50 (HCT116 colony formation, 72 h drug incubation, Example 20, C-10 substituted acetate/C-7 hydroxy taxanes): < 1 nM

Compound: CCC(=O)O[C@H]1C[C@H]2OC[C@@]2(OC(C)=O)C2[C@H](OC(=O)c3ccccc3)[C@]3(O)C[C@H](OC(=O)[C@H](O)[C@@H](NC(=O)OC(C)(C)C)c4ccncc4)C(C)=C([C@@H](O)C(=O)[C@@]21C)C3(C)C (some centres unmarked) [Compound 1386]
- IC50 [1]: < 1 nM

Compound: CCC(=O)O[C@H]1C(=O)[C@@]2(C)C([C@H](OC(=O)c3ccccc3)[C@]3(O)C[C@H](OC(=O)[C@H](O)[C@@H](NC(=O)c4cccs4)c4ccco4)C(C)=C1C3(C)C)[C@]1(OC(C)=O)CO[C@@H]1C[C@@H]2O (some centres unmarked) [Compound 3644]
- IC50 [2]: < 1 nM

Compound: CCC(=O)O[C@H]1C[C@H]2OC[C@@]2(OC(C)=O)C2[C@H](OC(=O)c3ccccc3)[C@]3(O)C[C@H](OC(=O)[C@H](O)[C@H](C=C(C)C)NC(=O)OC(C)(C)C)C(C)=C([C@@H](O)C(=O)[C@@]21C)C3(C)C (some centres unmarked) [Compound 1351]
- IC50 [1]: < 1 nM

Compound: CCOC(=O)O[C@H]1C(=O)[C@@]2(C)C([C@H](OC(=O)c3ccccc3)[C@]3(O)C[C@H](OC(=O)[C@H](O)[C@@H](NC(=O)OC(C)(C)C)c4ccncc4)C(C)=C1C3(C)C)[C@]1(OC(C)=O)CO[C@@H]1C[C@@H]2O (some centres unmarked) [Compound 1811]
- IC50 [3]: < 1 nM

Compound: CCCC(=O)O[C@H]1C[C@H]2OC[C@@]2(OC(C)=O)C2[C@H](OC(=O)c3ccccc3)[C@]3(O)C[C@H](OC(=O)[C@H](O)[C@H](C=C(C)C)NC(=O)OCC(C)C)C(C)=C([C@@H](O)C(=O)[C@@]21C)C3(C)C (some centres unmarked) [Compound 5131]
- IC50 [1]: < 10 nM

Compound: CCC(C)(C)OC(=O)N[C@@H](c1ccco1)[C@@H](O)C(=O)O[C@H]1C[C@@]2(O)[C@@H](OC(=O)c3ccccc3)C3[C@](C)(C(=O)[C@H](O)C(=C1C)C2(C)C)[C@@H](OC(=O)C(C)C)C[C@H]1OC[C@@]31OC(C)=O (some centres unmarked) [Compound 6252]
- IC50 [1]: < 1 nM

Compound: COC(=O)O[C@H]1C[C@H]2OC[C@@]2(OC(C)=O)C2[C@H](OC(=O)c3ccccc3)[C@]3(O)C[C@H](OC(=O)[C@H](O)[C@@H](NC(=O)OC(C)C)c4cccs4)C(C)=C([C@@H](O)C(=O)[C@@]21C)C3(C)C (some centres unmarked) [Compound 4144]
- IC50 [3]: < 1 nM

Compound: CCC(=O)O[C@H]1C(=O)[C@@]2(C)C([C@H](OC(=O)c3ccccc3)[C@]3(O)C[C@H](OC(=O)[C@H](O)[C@@H](NC(=O)c4ccccc4)c4ccco4)C(C)=C1C3(C)C)[C@]1(OC(C)=O)CO[C@@H]1C[C@@H]2O (some centres unmarked) [Compound 0663]
- IC50 [2]: < 1 nM

Compound: CCCC(=O)O[C@H]1C[C@H]2OC[C@@]2(OC(C)=O)C2[C@H](OC(=O)c3ccccc3)[C@]3(O)C[C@H](OC(=O)[C@H](O)[C@@H](NC(=O)OC(C)(C)C)c4ccco4)C(C)=C([C@@H](O)C(=O)[C@@]21C)C3(C)C (some centres unmarked) [Compound 4499]
- IC50 [1]: < 1 nM

Compound: CCOC(=O)O[C@H]1C[C@H]2OC[C@@]2(OC(C)=O)C2[C@H](OC(=O)c3ccccc3)[C@]3(O)C[C@H](OC(=O)[C@H](O)[C@@H](NC(=O)OC(C)(C)C)c4ccsc4)C(C)=C([C@@H](O)C(=O)[C@@]21C)C3(C)C (some centres unmarked) [Compound 4500]
- IC50 [3]: < 1 nM

Compound: CCCC(=O)O[C@H]1C(=O)[C@@]2(C)C([C@H](OC(=O)c3ccccc3)[C@]3(O)C[C@H](OC(=O)[C@H](O)[C@@H](NC(=O)OC(C)(C)C)c4ccco4)C(C)=C1C3(C)C)[C@]1(OC(C)=O)CO[C@@H]1C[C@@H]2O (some centres unmarked) [Compound 0983]
- IC50 [2]: < 1 nM

Compound: C/C=C/C(=O)N[C@@H](c1cccs1)[C@@H](O)C(=O)O[C@H]1C[C@@]2(O)[C@@H](OC(=O)c3ccccc3)C3[C@](C)(C(=O)[C@H](O)C(=C1C)C2(C)C)[C@@H](OC(=O)OC)C[C@H]1OC[C@@]31OC(C)=O (some centres unmarked) [Compound 4766]
- IC50 [3]: < 1 nM

Compound: CC(=O)O[C@@]12CO[C@@H]1C[C@H](OC(=O)Nc1ccc(F)c(F)c1)[C@@]1(C)C(=O)[C@H](O)C3=C(C)[C@@H](OC(=O)[C@H](O)[C@@H](NC(=O)OC(C)(C)C)c4ccco4)C[C@@](O)([C@@H](OC(=O)c4ccccc4)C12)C3(C)C (some centres unmarked) [Compound 5415]
- IC50 [4]: < 1 nM

Compound: CCNC(=O)O[C@H]1C(=O)[C@@]2(C)C([C@H](OC(=O)c3ccccc3)[C@]3(O)C[C@H](OC(=O)[C@H](O)[C@@H](NC(=O)OC(C)(C)C)c4ccccc4)C(C)=C1C3(C)C)[C@]1(OC(C)=O)CO[C@@H]1C[C@@H]2O (some centres unmarked) [Compound 2640]
- IC50 [5]: < 1 nM

Compound: CCCC(=O)O[C@H]1C(=O)[C@@]2(C)C([C@H](OC(=O)c3ccccc3)[C@]3(O)C[C@H](OC(=O)[C@H](O)[C@@H](NC(=O)OCC(C)C)c4ccoc4)C(C)=C1C3(C)C)[C@]1(OC(C)=O)CO[C@@H]1C[C@@H]2O (some centres unmarked) [Compound 4704]
- IC50 [2]: < 10 nM

Compound: CCCC(=O)O[C@H]1C(=O)[C@@]2(C)C([C@H](OC(=O)c3ccccc3)[C@]3(O)C[C@H](OC(=O)[C@H](O)[C@@H](NC(=O)OC(C)(C)C)c4cccnc4)C(C)=C1C3(C)C)[C@]1(OC(C)=O)CO[C@@H]1C[C@@H]2O (some centres unmarked) [Compound 0966]
- IC50 [2]: < 10 nM

Compound: CCCNC(=O)O[C@H]1C[C@H]2OC[C@@]2(OC(C)=O)C2[C@H](OC(=O)c3ccccc3)[C@]3(O)C[C@H](OC(=O)[C@H](O)[C@@H](NC(=O)OC(C)(C)C)c4ccco4)C(C)=C([C@@H](O)C(=O)[C@@]21C)C3(C)C (some centres unmarked) [Compound 5665]
- IC50 [4]: > 50 nM

Compound: C/C=C/C(=O)O[C@H]1C(=O)[C@@]2(C)C([C@H](OC(=O)c3ccccc3)[C@]3(O)C[C@H](OC(=O)[C@H](O)[C@@H](NC(=O)OC(C)(C)C)c4ccccc4)C(C)=C1C3(C)C)[C@]1(OC(C)=O)CO[C@@H]1C[C@@H]2O (some centres unmarked) [Compound 2442]
- IC50 [2]: < 1 nM

Compound: CCOC(=O)O[C@H]1C[C@H]2OC[C@@]2(OC(C)=O)C2[C@H](OC(=O)c3ccccc3)[C@]3(O)C[C@H](OC(=O)[C@H](O)[C@@H](NC(=O)OC(C)(C)C)C4CC4)C(C)=C([C@@H](O)C(=O)[C@@]21C)C3(C)C (some centres unmarked) [Compound 5165]
- IC50 [3]: < 1 nM

Compound: CC(=O)O[C@@]12CO[C@@H]1C[C@H](O)[C@@]1(C)C(=O)[C@H](OC(=O)C(C)C)C3=C(C)[C@@H](OC(=O)[C@H](O)[C@@H](NC(=O)OC(C)(C)C)c4cccs4)C[C@@](O)([C@@H](OC(=O)c4ccccc4)C12)C3(C)C (some centres unmarked) [Compound 2287]
- IC50 [2]: < 1 nM

Compound: CCOC(=O)O[C@H]1C[C@H]2OC[C@@]2(OC(C)=O)C2[C@H](OC(=O)c3ccccc3)[C@]3(O)C[C@H](OC(=O)[C@H](O)[C@@H](NC(=O)C=C(C)C)c4cccs4)C(C)=C([C@@H](O)C(=O)[C@@]21C)C3(C)C (some centres unmarked) [Compound 4164]
- IC50 [3]: < 1 nM

Compound: CC(=O)O[C@@]12CO[C@@H]1C[C@H](O)[C@@]1(C)C(=O)[C@H](OC(=O)C=C(C)C)C3=C(C)[C@@H](OC(=O)[C@H](O)[C@@H](NC(=O)OC(C)(C)C)c4ccsc4)C[C@@](O)([C@@H](OC(=O)c4ccccc4)C12)C3(C)C (some centres unmarked) [Compound 2511]
- IC50 [2]: < 1 nM

Compound: C/C=C/C(=O)O[C@H]1C(=O)[C@@]2(C)C([C@H](OC(=O)c3ccccc3)[C@]3(O)C[C@H](OC(=O)[C@H](O)[C@@H](NC(=O)OC(C)(C)C)c4ccsc4)C(C)=C1C3(C)C)[C@]1(OC(C)=O)CO[C@@H]1C[C@@H]2O (some centres unmarked) [Compound 2408]
- IC50 [2]: < 1 nM

Compound: CCNC(=O)O[C@H]1C(=O)[C@@]2(C)C([C@H](OC(=O)c3ccccc3)[C@]3(O)C[C@H](OC(=O)[C@H](O)[C@@H](NC(=O)OC(C)(C)C)c4ccc([N+](=O)[O-])cc4)C(C)=C1C3(C)C)[C@]1(OC(C)=O)CO[C@@H]1C[C@@H]2O (some centres unmarked) [Compound 2743]
- IC50 [5]: < 1 nM

Compound: CC(=O)OC12COC1CC(O)C1(C)C(=O)C(OC(=O)C(C)C)C3=C(C)C(OC(=O)C(O)C(C=C(C)C)NC(=O)OC(C)(C)C)CC(O)(C(OC(=O)c4ccccc4)C21)C3(C)C (centres unmarked) [Compound 2226]
- IC50 [2]: < 1 nM

Compound: CC(=O)O[C@@]12CO[C@@H]1C[C@H](O)[C@@]1(C)C(=O)[C@H](OC(=O)C3CC3)C3=C(C)[C@@H](OC(=O)[C@H](O)[C@@H](NC(=O)c4ccccc4)c4ccc([N+](=O)[O-])cc4)C[C@@](O)([C@@H](OC(=O)c4ccccc4)C12)C3(C)C (some centres unmarked) [Compound 2869]
- IC50 [2]: < 10 nM

Compound: CCCC(=O)O[C@H]1C[C@H]2OC[C@@]2(OC(C)=O)C2[C@H](OC(=O)c3ccccc3)[C@]3(O)C[C@H](OC(=O)[C@H](O)[C@@H](NC(=O)c4ccccc4)c4cccs4)C(C)=C([C@@H](O)C(=O)[C@@]21C)C3(C)C (some centres unmarked) [Compound 4175]
- IC50 [1]: < 10 nM

Compound: CCOC(=O)N[C@@H](c1cccs1)[C@@H](O)C(=O)O[C@H]1C[C@@]2(O)[C@@H](OC(=O)c3ccccc3)C3[C@](C)(C(=O)[C@H](O)C(=C1C)C2(C)C)[C@@H](OC(=O)CC)C[C@H]1OC[C@@]31OC(C)=O (some centres unmarked) [Compound 4044]
- IC50 [1]: < 1 nM

Compound: COC(=O)O[C@H]1C[C@H]2OC[C@@]2(OC(C)=O)C2[C@H](OC(=O)c3ccccc3)[C@]3(O)C[C@H](OC(=O)[C@H](O)[C@@H](NC(=O)OCC(C)C)c4ccco4)C(C)=C([C@@H](O)C(=O)[C@@]21C)C3(C)C (some centres unmarked) [Compound 4656]
- IC50 [3]: < 1 nM

Compound: CCCC(=O)O[C@H]1C(=O)[C@@]2(C)C([C@H](OC(=O)c3ccccc3)[C@]3(O)C[C@H](OC(=O)[C@H](O)[C@@H](NC(=O)OCC)c4ccco4)C(C)=C1C3(C)C)[C@]1(OC(C)=O)CO[C@@H]1C[C@@H]2O (some centres unmarked) [Compound 3693]
- IC50 [2]: < 1 nM

Compound: CCC(=O)O[C@H]1C(=O)[C@@]2(C)C([C@H](OC(=O)c3ccccc3)[C@]3(O)C[C@H](OC(=O)[C@H](O)[C@@H](NC(=O)c4ccco4)c4cccs4)C(C)=C1C3(C)C)[C@]1(OC(C)=O)CO[C@@H]1C[C@@H]2O (some centres unmarked) [Compound 3053]
- IC50 [2]: < 1 nM
